Data published in patent EP4616862A1, “ANTIVIRAL C[…] DERIVED FROM NUCLEIC ACID AND PHARMACEUTICALLY ACCEPTABLE SALTS THEREOF” (priority 2022, dated 2024).
Read-outs that look alike come from different tables or passages of the source.

Assays:
in vitro [1] = experiment: in vitro
[2] = Cytotoxicity (CCoV example); type: cell-based, canine; details: Table 4 (CCoV), cell line for cytotoxicity not given
[3] = system: Canine coronavirus (CCoV); experiment: microbe, parasite or virus in culture; type: cell-based
[4] = system: African Swine Fever Virus (ASFV, China/2018/AnhuiXCGQ); experiment: microbe, parasite or virus in culture; type: cell-based; details: for IC50: African swine fever virus
Mx1 = type: cell-based, Pig
ISG15 = type: cell-based, Pig
in vitro [5] = experiment: in vitro; remark: listed apart in the source
[6] = Cytotoxicity (FIPV example); type: cell-based, feline; details: Table 9 (FIPV), cell line for cytotoxicity not given
[7] = Cytotoxicity (FPV example); type: cell-based, feline; details: Table 7 (FPV), cell line for cytotoxicity not given
[8] = system: Canine distemper virus (CDV); experiment: microbe, parasite or virus in culture; type: cell-based; details: for IC50: canine distemper virus, Vero
[9] = Cytotoxicity (CAV example); type: cell-based, monkey; details: Table 5 (CAV), cell line for cytotoxicity not given
Feline parvovirus (FPV) = experiment: microbe, parasite or virus in culture; type: cell-based; details: for IC50: Feline parvovirus, CRFK
[10] = Cytotoxicity (CDV example); type: cell-based, monkey; details: Table 6 (CDV), cell line for cytotoxicity not given
FIPV = FIPV infection inhibition in FCWF-4 cells (RT-qPCR); type: cell-based, Feline Infectious peritonitis virus; details: for IC50: FCWF-4 cell line; for SI (selectivity index): CC50/IC50
Feline Calicivirus (FCV) = experiment: microbe, parasite or virus in culture; type: cell-based; details: for IC50: Feline calicivirus, CRFK
Canine adenovirus (CAV) = experiment: CAV infection inhibition in Vero cells (qPCR of viral DNA); type: cell-based; details: for SI (selectivity index): CC50/IC50; for IC50: Canine mastadenovirus A, Vero cell line
RNaseL = type: cell-based, Pig
in vitro [11] = experiment: in vitro; remark: listed apart in the source
[12] = system: Low pathogenic avian influenza virus (LPAIV, H9N2); experiment: microbe, parasite or virus in culture; type: cell-based; details: for IC50: unidentified influenza virus, H9N2, MDCK
[13] = system: foot and mouth disease virus (FMDV); experiment: microbe, parasite or virus in culture; type: cell-based; details: for IC50: Foot-and-mouth disease virus
[14] = Cytotoxicity (FCV example); type: cell-based, feline; details: Table 8 (FCV), cell line for cytotoxicity not given
in vitro [15] = experiment: in vitro; remark: listed apart in the source
[16] = system: Classical Swine Fever Virus (CSFV); experiment: microbe, parasite or virus in culture; type: cell-based; details: for IC50: Classical swine fever virus
[17] = Alphacoronavirus 1, A-72, 48 h, read-out: IC50 (CCoV infection inhibition concentration)
[18] = 48 h, read-out: IC50 (ASFV infection inhibition concentration)
[19] = 72 h, read-out: IC50 (CDV infection inhibition concentration)
[20] = 48 h, read-out: IC50 (FPV infection inhibition concentration)
[21] = Alphacoronavirus 1, 48 h, FIPV 100 TCID50/well, simultaneous treatment, 2 days, RT-qPCR, read-out: IC50 (FIPV infection inhibition concentration)
[22] = 24 h, read-out: IC50 (FCV infection inhibition concentration)
[23] = 48 h, CAV 100 TCID50/well, simultaneous treatment, 2 days, qPCR, read-out: IC50 (CAV infection inhibition concentration)
[24] = 48 h, read-out: IC50 (LPAIV infection inhibition concentration)
[25] = BHK-21, 36 h, read-out: IC50 (FMDV infection inhibition concentration)
[26] = PK-15, 48 h, read-out: IC50 (CSFV infection inhibition concentration)

SMILES | SI (selectivity index) [3] | IC50 [3, 17] [mM] | SI (selectivity index) [4] | IC50 [4, 18] [mM] | Fold change (multiple increase compared to control group) Mx1 (Mx1) | Fold change (multiple increase compared to control group) ISG15 (ISG15) | SI (selectivity index) [8] | IC50 [8, 19] [mM] | SI (selectivity index) (Feline parvovirus (FPV)) | IC50 (Feline parvovirus (FPV); [20]) [mM] | IC50 (FIPV; [21]) [mM] | SI (selectivity index) (FIPV; FIPV) | SI (selectivity index) (Feline Calicivirus (FCV)) | IC50 (Feline Calicivirus (FCV); [22]) [mM] | SI (selectivity index) (Canine adenovirus (CAV); CAV) | IC50 (Canine adenovirus (CAV); [23]) [mM] | Fold change (multiple increase compared to control group) RNaseL (RNaseL) | IC50 [12, 24] [mM] | SI (selectivity index) [16] | IC50 [16, 26] [mM] | also measured
Nc1nc2c(ncn2[C@@H](CO)OC(CO)CO)c(=O)[nH]1 [Acyclic diol-Guanosine, acyclic diol form of guanosine] | > 4.5 | < 2.24 | > 37.0 | < 0.27 | 4.0 (±1.2) | 4.2 (±1.5) | > 4.7 | < 2.12 | > 1.9 | < 0.53 | < 1.51 | > 6.6 | > 75.1 | < 0.133 | > 2.4 | < 4.13 | 3.0 (±0.8) | < 1.34 | > 2.8 | < 3.61 | CC50 (in vitro [1]; dog, mdck): > 10 mM; CC50 ([2]; dog, a-72 cells): > 10 mM; CC50 (in vitro [5]; hamster, bhk-21 cells): > 10 mM; CC50 ([6]; cat, fcwf-4 cells): > 10 mM; CC50 ([7]; cat, crfk cells): > 10 mM; CC50 ([9]; monkey, vero cells): > 10 mM; CC50 ([10]; monkey, vero cells): > 10 mM; CC50 (in vitro [11]; pig, pk15 cells): > 10 mM; SI (selectivity index) [13]: > 4.9; IC50 [13, 25]: < 2.06 mM; CC50 ([14]; cat, crfk cells): > 10 mM; CC50 (in vitro [15]; pig, pam cells): > 10 mM
O=c1[nH]cnc2c1ncn2[C@@H](CO)OC(CO)CO [Acyclic diol-Inosine, acyclic diol form of inosine] | > 7.9 | < 1.27 | > 28.3 | < 0.353 | 2.8 (±0.9) | 6.3 (±0.4) | > 3.7 | < 2.7 | > 5.4 | < 1.87 | < 0.872 | > 11.5 | > 27.6 | < 0.362 | > 5.6 | < 1.78 | 2.0 (±0.3) | < 1.81 | > 5.7 | < 1.75 | CC50 (in vitro [1]; dog, mdck): > 10 mM; CC50 ([2]; dog, a-72 cells): > 10 mM; CC50 (in vitro [5]; hamster, bhk-21 cells): > 10 mM; CC50 ([6]; cat, fcwf-4 cells): > 10 mM; CC50 ([7]; cat, crfk cells): > 10 mM; CC50 ([9]; monkey, vero cells): > 10 mM; CC50 ([10]; monkey, vero cells): > 10 mM; CC50 (in vitro [11]; pig, pk15 cells): > 10 mM; SI (selectivity index) [13]: > 8.3; IC50 [13, 25]: < 1.2 mM; CC50 ([14]; cat, crfk cells): > 10 mM; CC50 (in vitro [15]; pig, pam cells): > 10 mM
O=c1[nH]c(=O)c2ncn([C@@H](CO)OC(CO)CO)c2[nH]1 [Acyclic diol-Xanthosine, acyclic diol form of xanthosine] | > 3.8 | < 2.6 | > 8.6 | < 1.17 | 2.7 (±1.4) | 4.7 (±1.3) | > 4.9 | < 2.05 | > 1.7 | < 5.75 | < 1.02 | > 9.8 | > 64.5 | < 0.155 | > 7.4 | < 1.35 | 1.7 (±0.3) | < 2 | > 3.4 | < 2.96 | CC50 (in vitro [1]; dog, mdck): > 10 mM; CC50 ([2]; dog, a-72 cells): > 10 mM; CC50 (in vitro [5]; hamster, bhk-21 cells): > 10 mM; CC50 ([6]; cat, fcwf-4 cells): > 10 mM; CC50 ([7]; cat, crfk cells): > 10 mM; CC50 ([9]; monkey, vero cells): > 10 mM; CC50 ([10]; monkey, vero cells): > 10 mM; CC50 (in vitro [11]; pig, pk15 cells): > 10 mM; SI (selectivity index) [13]: > 5.0; IC50 [13, 25]: < 2 mM; CC50 ([14]; cat, crfk cells): > 10 mM; CC50 (in vitro [15]; pig, pam cells): > 10 mM
Nc1nc2c(ncn2[C@@H](C=O)O[C@@H](C=O)CO)c(=O)[nH]1 [Dialdehyde-Guanosine, dialdehyde form of guanosine] | > 54.7 | < 0.11 | > 75.9 | < 0.079 | 3.5 (±0.7) | 4.7 (±0.3) | > 46.5 | < 0.129 | > 158 | < 0.038 | < 0.0528 | > 113.7 | > 329.7 | < 0.0182 | > 69.8 | < 0.0859 | 2.5 (±0.1) | < 0.102 | > 36.1 | < 0.165 | CC50 (in vitro [1]; dog, mdck): > 6 mM; CC50 ([2]; dog, a-72 cells): > 6 mM; IC50 ([3]; Alphacoronavirus 1, A-72): 0.11 mM; IC50 [4]: 0.079 mM; CC50 (in vitro [5]; hamster, bhk-21 cells): > 6 mM; CC50 ([6]; cat, fcwf-4 cells): > 6 mM; CC50 ([7]; cat, crfk cells): > 6 mM; CC50 ([9]; monkey, vero cells): > 6 mM; CC50 ([10]; monkey, vero cells): > 6 mM; IC50 (Feline Calicivirus (FCV)): 0.0182 mM; IC50 (Canine adenovirus (CAV); CAV, read-out: IC50): 0.0859 mM; CC50 (in vitro [11]; pig, pk15 cells): > 6 mM; IC50 [12]: 0.102 mM; SI (selectivity index) [13]: > 52.3; IC50 ([13]; BHK-21): 0.115 mM; IC50 [13, 25]: < 0.115 mM; CC50 ([14]; cat, crfk cells): > 6 mM; CC50 (in vitro [15]; pig, pam cells): > 6 mM
O=C[C@@H](CO)O[C@H](C=O)n1cnc2c(=O)[nH]cnc21 [Dialdehyde-Inosine, dialdehyde form of inosine] | > 221.7 | < 0.0451 | > 103.5 | < 0.0966 | 3.5 (±1.1) | 4.0 (±0.6) | > 93.9 | < 0.106 | > 192 | < 0.052 | < 0.0455 | > 219.9 | > 384.6 | < 0.026 | > 30.7 | < 0.326 | 3.0 (±0.2) | < 0.268 | > 42.0 | < 0.238 | CC50 (in vitro [1]): > 10 mM; CC50 [2]: > 10 mM; IC50 ([3]; Alphacoronavirus 1, A-72): 0.0451 mM; CC50 (in vitro [5]): > 10 mM; CC50 [6]: > 10 mM; CC50 [7]: > 10 mM; CC50 [9]: > 10 mM; CC50 [10]: > 10 mM; IC50 (FIPV; Alphacoronavirus 1, FIPV, read-out: IC50): 0.0455 mM; CC50 (in vitro [11]): > 10 mM; SI (selectivity index) [12]: > 37.4; SI (selectivity index) [13]: > 22.9; IC50 [13, 25]: < 0.436 mM; CC50 [14]: > 10 mM; CC50 (in vitro [15]): > 10 mM
O=C[C@@H](CO)O[C@H](C=O)n1cnc2c(=O)[nH]c(=O)[nH]c21 [Dialdehyde-Xanthosine, dialdehyde form of xanthosine] | > 232.6 | < 0.043 | > 90.9 | < 0.11 | 3.5 (±1.0) | 4.5 (±0.4) | > 125.1 | < 0.0799 | > 258 | < 0.031 | < 0.0551 | > 181.4 | > 398.0 | < 0.0201 | > 77.2 | < 0.13 | 3.4 (±0.2) | < 0.222 | > 63.8 | < 0.157 | CC50 (in vitro [1]): > 10 mM; CC50 [2]: > 10 mM; IC50 ([3]; Alphacoronavirus 1, A-72): 0.043 mM; CC50 [6]: > 10 mM; CC50 [7]: > 8 mM; IC50 [8]: 0.0799 mM; CC50 [9]: > 10 mM; IC50 (Feline parvovirus (FPV)): 0.031 mM; CC50 [10]: > 10 mM; CC50 (in vitro [11]): > 10 mM; SI (selectivity index) [12]: > 45.1; CC50 [14]: > 8 mM; CC50 (in vitro [15]): > 10 mM; IC50 ([16]; PK-15): 0.157 mM
